From PMC9250534, “Synthesis and direct assay of large macrocycle diversities by combinatorial late-stage modification at picomole scale” (Nature Communications, 2022)
Numbered stars: 1 amine (or outer) side, 2 acyl side, 3 side chain; on linkers, the order of the positions; unused ones are H or OH. Bridge positions count the residues as written; N and C are the ends. Square brackets hold non-standard residues; d marks the D form. Peptide text beside a SMILES is read from it. * marks the point of attachment. Pyrazinoyl(5-oxo-4H) = O=C(c1c[nH]c(=O)cn1)*; Benzoyl(3,5-diOMe) = COc1cc(OC)cc(C(=O)*)c1; Isoxazole3carbonyl(5-Me) = Cc1cc(C(=O)*)no1; 1,2,3Thiadiazole5CO(4-Me) = Cc1nnsc1C(=O)*; Benzoyl(3-CF3) = O=C(c1cccc(C(F)(F)F)c1)*; Isoorotoyl = O=C(c1c[nH]c(=O)[nH]c1=O)*; Nicotinoyl(6-OMe) = COc1ccc(C(=O)*)cn1; X11 = O=C(c1cccc(S(F)(F)(F)(F)F)c1)*; 2Thenoyl(5-Cl) = O=C(c1ccc(Cl)s1)*; Benzoyl(3-Cl) = O=C(c1cccc(Cl)c1)*; Benzoyl(4-Cl) = O=C(c1ccc(Cl)cc1)*; Pyrazinecarbonyl = O=C(c1cnccn1)*; Phenoxyacetyl = O=C(COc1ccccc1)*; X14 = O=C(C1(c2ccccc2)CCCCC1)*; Cysteamide = C(CS[*:3])N[*:1]; X3 = O=C(Cc1c[nH]c2ccccc12)*; X6 = O=C(c1ccc2nc[nH]c2c1)*; Ethoxyacetyl = CCOCC(=O)*; Isovaleryl = CC(C)CC(=O)*; MeOSuc = COC(=O)CCC(=O)*; 2Furoyl = O=C(c1ccco1)*; X17 = O=C(c1ccc(Br)o1)*; Dap = NC[C@H](N)C(=O)O; X15 = O=C(c1cc[nH]n1)*; Bz = O=C(c1ccccc1)*; Mpa = O=C(O)CCS

molecular target: MDM2 (Homo sapiens, UniProt Q00987); test: MDM2 binding screen: displacement of fluorescent p53 peptide probe FP53 (fluorescence polarization); settings: 10 µM macrocycle concentration; crude acylated macrocycle (scaffold Mpa-AA1-AA2-AA3 x carboxylic acid); p53-based fluorescent peptide, human MDM2
Method in brief: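 Macrocycle reaction products at a final 10 µM were tested for displacement of a p53-based fluorescent peptide from human MDM2. Fluorescence anisotropy (ex 485/em 535 nm) was read once per macrocycle at 25 °C.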

Chain of MDM2 (Q00987 whole entry, the tested form may be a part): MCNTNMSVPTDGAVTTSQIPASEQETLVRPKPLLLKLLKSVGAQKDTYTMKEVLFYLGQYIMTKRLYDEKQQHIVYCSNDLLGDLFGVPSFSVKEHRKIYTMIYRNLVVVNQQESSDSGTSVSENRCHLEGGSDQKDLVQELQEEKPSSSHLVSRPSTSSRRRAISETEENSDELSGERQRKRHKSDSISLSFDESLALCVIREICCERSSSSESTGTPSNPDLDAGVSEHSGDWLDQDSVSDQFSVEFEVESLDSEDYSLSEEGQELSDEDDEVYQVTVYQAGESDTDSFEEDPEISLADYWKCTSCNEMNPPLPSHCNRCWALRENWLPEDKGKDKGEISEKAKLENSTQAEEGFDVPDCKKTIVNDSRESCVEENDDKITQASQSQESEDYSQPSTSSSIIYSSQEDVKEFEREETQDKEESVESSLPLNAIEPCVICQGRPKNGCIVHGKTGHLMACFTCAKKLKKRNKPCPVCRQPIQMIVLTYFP

| Compound | fraction fluorescent probe displaced |
| --- | --- |
| COC(=O)CCC(=O)NC[C@@H]1NC(=O)[C@@H]2CCCN2C(=O)CCSSCCNC(=O)[C@H](Cc2ccccc2)NC1=O [X-B1-D3-F + A93] ([Mpa]P[Dap](MeOSuc)F-Cysteamide; disulfide 1-C) | 0.05512 |
| O=C1NCCSSCCC(=O)N2CCC[C@H]2C(=O)N[C@@H](CNC(=O)C2(c3ccccc3)CCCCC2)C(=O)N[C@H]1Cc1ccccc1 [X-B1-D3-F + A98] ([Mpa]P[Dap](X14)F-Cysteamide; disulfide 1-C) | 0.6432 |
| CCOCC(=O)NC[C@@H]1NC(=O)[C@@H]2CCCN2C(=O)CCSSCCNC(=O)[C@H](Cc2ccccc2)NC1=O [X-B1-D3-F + A104] ([Mpa]P[Dap](Ethoxyacetyl)F-Cysteamide; disulfide 1-C) | 0.09201 |
| NC[C@@H]1NC(=O)[C@@H]2CCCN2C(=O)CCSSCCNC(=O)[C@H](Cc2ccccc2)NC1=O [X-B1-D3-F + No Acid] ([Mpa]P[Dap]F-Cysteamide; disulfide 1-C) | 0.01749 |
| O=C(NC[C@@H]1NC(=O)[C@@H]2CCCN2C(=O)CCSSCCNC(=O)[C@H](Cc2c[nH]c3ccccc23)NC1=O)c1ccccc1 [X-B1-D3-W + A1] ([Mpa]P[Dap](Bz)W-Cysteamide; disulfide 1-C) | -0.005048 |
| O=C(NC[C@@H]1NC(=O)[C@@H]2CCCN2C(=O)CCSSCCNC(=O)[C@H](Cc2c[nH]c3ccccc23)NC1=O)c1cnccn1 [X-B1-D3-W + A2] ([Mpa]P[Dap](Pyrazinecarbonyl)W-Cysteamide; disulfide 1-C) | 0.03807 |
| Cc1cc(C(=O)NC[C@@H]2NC(=O)[C@@H]3CCCN3C(=O)CCSSCCNC(=O)[C@H](Cc3c[nH]c4ccccc34)NC2=O)no1 [X-B1-D3-W + A3] ([Mpa]P[Dap](Isoxazole3carbonyl(5-Me))W-Cysteamide; disulfide 1-C) | 0.08125 |
| COc1cc(OC)cc(C(=O)NC[C@@H]2NC(=O)[C@@H]3CCCN3C(=O)CCSSCCNC(=O)[C@H](Cc3c[nH]c4ccccc34)NC2=O)c1 [X-B1-D3-W + A4] ([Mpa]P[Dap](Benzoyl(3,5-diOMe))W-Cysteamide; disulfide 1-C) | 0.03512 |
| O=C(NC[C@@H]1NC(=O)[C@@H]2CCCN2C(=O)CCSSCCNC(=O)[C@H](Cc2c[nH]c3ccccc23)NC1=O)c1cc[nH]n1 [X-B1-D3-W + A5] ([Mpa]P[Dap](X15)W-Cysteamide; disulfide 1-C) | 0.05625 |
| O=C(NC[C@@H]1NC(=O)[C@@H]2CCCN2C(=O)CCSSCCNC(=O)[C@H](Cc2c[nH]c3ccccc23)NC1=O)c1ccc2nc[nH]c2c1 [X-B1-D3-W + A6] ([Mpa]P[Dap](X6)W-Cysteamide; disulfide 1-C) | 0.2779 |
| CC(=O)NC[C@@H]1NC(=O)[C@@H]2CCCN2C(=O)CCSSCCNC(=O)[C@H](Cc2c[nH]c3ccccc23)NC1=O [X-B1-D3-W + A7] ([Mpa]P[Dap](Ac)W-Cysteamide; disulfide 1-C) | 0.05096 |
| CC(C)CC(=O)NC[C@@H]1NC(=O)[C@@H]2CCCN2C(=O)CCSSCCNC(=O)[C@H](Cc2c[nH]c3ccccc23)NC1=O [X-B1-D3-W + A8] ([Mpa]P[Dap](Isovaleryl)W-Cysteamide; disulfide 1-C) | 0.1324 |
| O=C(NC[C@@H]1NC(=O)[C@@H]2CCCN2C(=O)CCSSCCNC(=O)[C@H](Cc2c[nH]c3ccccc23)NC1=O)c1c[nH]c(=O)cn1 [X-B1-D3-W + A9] ([Mpa]P[Dap](Pyrazinoyl(5-oxo-4H))W-Cysteamide; disulfide 1-C) | 0.06006 |
| COc1ccc(C(=O)NC[C@@H]2NC(=O)[C@@H]3CCCN3C(=O)CCSSCCNC(=O)[C@H](Cc3c[nH]c4ccccc34)NC2=O)cn1 [X-B1-D3-W + A10] ([Mpa]P[Dap](Nicotinoyl(6-OMe))W-Cysteamide; disulfide 1-C) | 0.2362 |
| O=C(NC[C@@H]1NC(=O)[C@@H]2CCCN2C(=O)CCSSCCNC(=O)[C@H](Cc2c[nH]c3ccccc23)NC1=O)c1c[nH]c(=O)[nH]c1=O [X-B1-D3-W + A11] ([Mpa]P[Dap](Isoorotoyl)W-Cysteamide; disulfide 1-C) | 0.1 |
| O=C(Cc1c[nH]c2ccccc12)NC[C@@H]1NC(=O)[C@@H]2CCCN2C(=O)CCSSCCNC(=O)[C@H](Cc2c[nH]c3ccccc23)NC1=O [X-B1-D3-W + A12] ([Mpa]P[Dap](X3)W-Cysteamide; disulfide 1-C) | 0.1189 |
| O=C(COc1ccccc1)NC[C@@H]1NC(=O)[C@@H]2CCCN2C(=O)CCSSCCNC(=O)[C@H](Cc2c[nH]c3ccccc23)NC1=O [X-B1-D3-W + A13] ([Mpa]P[Dap](Phenoxyacetyl)W-Cysteamide; disulfide 1-C) | 0.1956 |
| O=C(NC[C@@H]1NC(=O)[C@@H]2CCCN2C(=O)CCSSCCNC(=O)[C@H](Cc2c[nH]c3ccccc23)NC1=O)c1ccc(Cl)s1 [X-B1-D3-W + A14] ([Mpa]P[Dap](2Thenoyl(5-Cl))W-Cysteamide; disulfide 1-C) | 0.1687 |
| Cc1nnsc1C(=O)NC[C@@H]1NC(=O)[C@@H]2CCCN2C(=O)CCSSCCNC(=O)[C@H](Cc2c[nH]c3ccccc23)NC1=O [X-B1-D3-W + A15] ([Mpa]P[Dap](1,2,3Thiadiazole5CO(4-Me))W-Cysteamide; disulfide 1-C) | 0.02409 |
| O=C(NC[C@@H]1NC(=O)[C@@H]2CCCN2C(=O)CCSSCCNC(=O)[C@H](Cc2c[nH]c3ccccc23)NC1=O)c1ccco1 [X-B1-D3-W + A16] ([Mpa]P[Dap](2Furoyl)W-Cysteamide; disulfide 1-C) | 0.06294 |
| O=C(NC[C@@H]1NC(=O)[C@@H]2CCCN2C(=O)CCSSCCNC(=O)[C@H](Cc2c[nH]c3ccccc23)NC1=O)c1cccc(Cl)c1 [X-B1-D3-W + A17] ([Mpa]P[Dap](Benzoyl(3-Cl))W-Cysteamide; disulfide 1-C) | 0.2671 |
| O=C(NC[C@@H]1NC(=O)[C@@H]2CCCN2C(=O)CCSSCCNC(=O)[C@H](Cc2c[nH]c3ccccc23)NC1=O)c1cccc(C(F)(F)F)c1 [X-B1-D3-W + A18] ([Mpa]P[Dap](Benzoyl(3-CF3))W-Cysteamide; disulfide 1-C) | -0.006211 |
| O=C(NC[C@@H]1NC(=O)[C@@H]2CCCN2C(=O)CCSSCCNC(=O)[C@H](Cc2c[nH]c3ccccc23)NC1=O)c1cccc(S(F)(F)(F)(F)F)c1 [X-B1-D3-W + A19] ([Mpa]P[Dap](X11)W-Cysteamide; disulfide 1-C) | 0.1429 |
| O=C(NC[C@@H]1NC(=O)[C@@H]2CCCN2C(=O)CCSSCCNC(=O)[C@H](Cc2c[nH]c3ccccc23)NC1=O)c1ccc(Br)o1 [X-B1-D3-W + A21] ([Mpa]P[Dap](X17)W-Cysteamide; disulfide 1-C) | 0.2551 |
| O=C(NC[C@@H]1NC(=O)[C@@H]2CCCN2C(=O)CCSSCCNC(=O)[C@H](Cc2c[nH]c3ccccc23)NC1=O)c1ccc(Cl)cc1 [X-B1-D3-W + A25] ([Mpa]P[Dap](Benzoyl(4-Cl))W-Cysteamide; disulfide 1-C) | 0.2195 |
